In publication PMC8621276, “Artemisinin Binds and Inhibits the Activity of Plasmodium falciparum Ddi1, a Retroviral Aspartyl Protease” (Pathogens, 2021):

Key:
Type in all cases: biochemical
[1] = biological target: T1, PfDdi1 (Plasmodium falciparum, UniProt Q8IM03); assay: inhibition of FRET peptide, AMC peptide and K48 polyubiquitin cleavage; details: 10 min preincubation, sodium acetate pH 5.0, 37 °C, 2.0 μM enzyme
T1 construct: gene PF3D7_1409300; full length (382 aa), His-tagged (pET-28b NcoI/XhoI), E. coli Rosetta (DE3), Ni-NTA; ~44 kDa plus processed ~34 kDa fragment
T1 sequence (Q8IM03 1-382): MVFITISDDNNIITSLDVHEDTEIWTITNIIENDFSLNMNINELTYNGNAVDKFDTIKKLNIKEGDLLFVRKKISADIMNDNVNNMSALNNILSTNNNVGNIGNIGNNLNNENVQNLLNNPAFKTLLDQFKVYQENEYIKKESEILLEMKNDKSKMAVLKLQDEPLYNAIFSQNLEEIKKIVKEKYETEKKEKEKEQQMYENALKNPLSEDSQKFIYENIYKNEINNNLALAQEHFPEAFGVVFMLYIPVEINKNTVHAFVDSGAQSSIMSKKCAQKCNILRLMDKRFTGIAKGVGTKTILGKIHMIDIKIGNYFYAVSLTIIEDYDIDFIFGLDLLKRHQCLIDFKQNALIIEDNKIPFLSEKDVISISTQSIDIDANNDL

[2] = biological target: T1, PfDdi1; assay: inhibition of fluorogenic peptide cleavage
[3] = biological target: T1, PfDdi1; assay: inhibition of FRET peptide cleavage

C[C@@H]1CC[C@H]2[C@@H](C)C(O)O[C@@H]3O[C@@]4(C)CC[C@@H]1[C@]32OO4 (stereo partly drawn) [DHA, Dihydroartemisinin]
% inhibition at 1 μM [1]: artemisinin and its derivative, DHA, significantly inhibited the ability of PfDdi1 to degrade the polyubiquitinated

Cc1cccc(C)c1OCC(=O)N[C@@H](Cc1ccccc1)[C@@H](O)C[C@H](Cc1ccccc1)NC(=O)[C@H](C(C)C)N1CCCNC1=O [LPV, Lopinavir]
inhibition at 50 µM [2]: ~23.5%

C[C@@H]1CC[C@H]2[C@@H](C)C(=O)O[C@@H]3O[C@@]4(C)CC[C@@H]1[C@]32OO4 [ART, artemisinin]
inhibition at 1 µM [3]: 71.4%
